According to US20240398962A1, “DENDRIMER-GLUTAMINE ANTAGONIST CONJUGATES AND METHODS OF USE THEREOF” (The Johns Hopkins University, priority 2021, published 2024):

Tested on: glutaminase
Assay: not given
Conditions: cited from earlier work

| Compound | Inhibition of glutamine-utilizing enzymes including glutaminase |
| --- | --- |
| [N-]=[N+]=CC(=O)CC[C@H](N)C(=O)O [DON, 6-diazo-5-oxo-L-norleucine] | low micromolar levels |

Tested on: not listed separately
Assay: Liver homogenate stability (compound disappearance by LC-MS/MS)
Assay type: in vitro ADME
Conditions: 20 μm, 37° C.
Protocol: Liver or EL4 lymphoma tumor tissues were washed and diluted 10-fold in 0.1 M potassium phosphate buffer and homogenized using a probe sonicator. To evaluate the stability of the analogs 1 mL aliquots were made of each matrix and the analogs were spiked to a final assay concentration of 20 μm. Spiked samples were incubated in an orbital shaker at 37° C. for 1 h, following which reactions were quenched in triplicate with three volumes of acetonitrile containing the internal standard (IS; losartan: 0.5 μm). The samples were vortex-mixed for 30 s and centrifuged at 10 000 g for 10 min at 4° C. Fifty microliters of the supernatant was diluted with 50 μL of water and transferred to a 250 μL polypropylene vial sealed with a Teflon cap. Compound disappearance was monitored over time using liquid chromatography tandem mass spectrometry (LC-MS/MS).

| Compound | Liver homogenate stability (% remaining at 1 h incubation) |
| --- | --- |
| CC(C)OC(=O)[C@H](CCC(=O)C=[N+]=[N-])NP(=O)(OCCCCN)Oc1ccccc1 (stereo partly drawn) [I, Isopropyl (2S)-2-(((4-aminobutoxy)(phenoxy)phosphoryl)amino)-6-diazo-5-oxohexanoate] | 32% |
| CC(C)C[C@H](NC(=O)COCCN)C(=O)N[C@@H](CCC(=O)C=[N+]=[N-])C(=O)OC(C)(C)C [II, t-Butyl (S)-2-((S)-2-(2-(2-aminoethoxy)acetamido)-4-methylpentanamido)-6-diazo-5-oxohexanoate] | 94% |
| CC(C)C[C@H](NC(=O)CCOCCOCCN)C(=O)N[C@@H](CCC(=O)C=[N+]=[N-])C(=O)OC(C)(C)C [III, t-Butyl (2S,5S)-15-amino-2-(4-diazo-3-oxobutyl)-5-isobutyl-4,7-dioxo-10,13-dioxa-3,6-diazapentadecanoate] | 79% |
| CC(C)C[C@H](NC(=O)CCOCCOCCN)C(=O)N[C@@H](CCC(=O)C=[N+]=[N-])C(=O)OC(C)C [IV, Isopropyl (2S,5S)-15-amino-2-(4-diazo-3-oxobutyl)-5-isobutyl-4,7-dioxo-10,13-dioxa-3,6-diazapentadecanoate] | 0% |
| CC(C)C[C@H](NC(=O)COCCN)C(=O)N[C@@H](CCC(=O)C=[N+]=[N-])C(=O)OC(C)C [V, Isopropyl (S)-2-((S)-2-(2-(2-aminoethoxy)acetamido)-4-methylpentanamido)-6-diazo-5-oxohexanoate] | 17% |
| CC(C)C[C@H](NC(=O)OCC1c2ccccc2-c2ccccc21)C(=O)N[C@@H](CCC(=O)C=[N+]=[N-])C(=O)N[C@@H](Cc1ccccc1)C(=O)NCCOCCOCCOCCOCCC(=O)O [VI, (5S,8S,11S)-11-Benzyl-8-(4-diazo-3-oxobutyl)-1-(9H-fluoren-9-yl)-5-isobutyl-3,6,9,12-tetraoxo-2,16,19,22,25-pentaoxa-4,7,10,13-tetraazaoctacosane-28-oic acid] | 12% |
| CC(C)C[C@H](NC(=O)OCC1c2ccccc2-c2ccccc21)C(=O)N[C@@H](CCC(=O)C=[N+]=[N-])C(=O)N[C@@H](Cc1ccccc1)C(=O)NCCOCCOCCOCCC(=O)O [VII, (5S,8S,11S)-11-benzyl-8-(4-diazo-3-oxobutyl)-1-(9H-fluoren-9-yl)-5-isobutyl-3,6,9,12-tetraoxo-2,16,19,22-tetraoxa-4,7,10,13-tetraazapentacosan-25-oic acid] | 0% |

Tested on: not listed separately
Assay: Stability of the prepared product on storage
Assay type: physicochemical
Conditions: should be stored at −80° C.
Protocol: Piperidine (1.00 mL, 10.3 mmol, 20 equiv.) was added and the reaction mixture was stirred at rt for 2 h. The solvent was evaporated and the residue was chromatographed on silica gel (CHCl3/MeOH 1:1+2% Et3N) to afford the desired product I (165 mg, 73%) as a yellowish oil. The prepared product I is very unstable and should be stored at −80° C.

| Compound | Stability of prepared product |
| --- | --- |
| CC(C)OC(=O)[C@H](CCC(=O)C=[N+]=[N-])NP(=O)(OCCCCN)Oc1ccccc1 (stereo partly drawn) [I, Isopropyl (2S)-2-(((4-aminobutoxy)(phenoxy)phosphoryl)amino)-6-diazo-5-oxohexanoate] | very unstable |
